Experimental data as given in patent US9284283B2, “Macrocyclic compounds for modulating IL-17” (ENSEMBLE THERAPEUTICS CORPORATION, priority 2012, dated 2016).

Target: T1, biotinylated human IL-17 (binding to IL17R/Fc) (Homo sapiens, UniProt Q16552)
T1 construct: purchased R&D Systems 317-ILB (IL-17, biotinylated); 177-IR (IL17R/Fc)
T1 sequence (Q16552 20-155 limits assumed): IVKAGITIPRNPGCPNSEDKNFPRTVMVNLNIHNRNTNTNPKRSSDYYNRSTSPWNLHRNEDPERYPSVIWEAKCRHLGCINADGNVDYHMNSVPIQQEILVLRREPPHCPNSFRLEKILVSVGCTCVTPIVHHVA
Test: IL-17 competition ELISA II (captured IL17R/Fc, biotinylated IL-17)
In short: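 Competition read-out: absorbance at 450 nm after streptavidin-HRP/TMB detection, fitted to a 4-parameter logistic model bounded by no-competitor and blank wells to give IC50. Compound was serially diluted 5-fold from 1 μM alongside 20 nM (stock) biotinylated IL-17 on IL17R/Fc (10 nM) captured via goat anti-human IgG, 30 min at room temperature.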

SMILES	IC50
COC(=O)N[C@@H](Cc1ccccc1Cl)C(=O)Nc1ccc(C[C@H]2NC(=O)CC3(CCCC3)CC(=O)N(C)CCOCCN(C)C(=O)[C@@H](C)NC2=O)cc1 [Compound 569]	< 100 nM
COC(=O)N[C@@H](Cc1ccccc1Cl)C(=O)Nc1ccc(C[C@H]2NC(=O)CC3(CCCC3)CC(=O)N(C)CCCCCN(C)C(=O)[C@@H](C)NC2=O)cc1 [Compound 570]	< 100 nM
O=C1CC2(CCCC2)CC(=O)N[C@H](Cc2ccc(NC(=O)[C@H](Cc3ccccc3Cl)NC(=O)Oc3ccc(F)cc3)cc2)C(=O)NCCOCCOCCN1 [Compound 572]	< 100 nM
C[C@H]1NC(=O)[C@@H](Cc2ccc(NC(=O)[C@H](Cc3ccccc3Cl)NC(=O)C(=O)c3ccccc3)cc2)NC(=O)CC2(CCCC2)CC(=O)N(C)CCN(C)CCN(C)C1=O [Compound 573]	< 100 nM
C[C@H]1NC(=O)[C@@H](Cc2ccc(NC(=O)[C@H](Cc3ccccc3Cl)NC(=O)Oc3ccccc3)cc2)NC(=O)CC2(CCCC2)CC(=O)N(C)CCN(C)CCN(C)C1=O [Compound 574]	< 100 nM
C[C@H]1NC(=O)[C@@H](Cc2ccc(NC(=O)[C@H](Cc3ccccc3Cl)NC(=O)Oc3ccc(F)cc3)cc2)NC(=O)CC2(CCCC2)CC(=O)NCCCCCNC1=O [Compound 575]	< 100 nM
C[C@H]1NC(=O)[C@@H](Cc2ccc(NC(=O)[C@H](Cc3ccccc3Cl)NC(=O)OCc3ccccc3)cc2)NC(=O)CC2(CCCC2)CC(=O)NCCCCCNC1=O [Compound 576]	< 100 nM
CCOC(=O)N[C@@H](Cc1ccccc1Cl)C(=O)Nc1ccc(C[C@H]2NC(=O)CC3(CCCC3)CC(=O)NCCCCCNC(=O)[C@@H](C)NC2=O)cc1 [Compound 577]	< 100 nM
CC(C)OC(=O)N[C@@H](Cc1ccccc1Cl)C(=O)Nc1ccc(C[C@H]2NC(=O)CC3(CCCC3)CC(=O)NCCCCCNC(=O)[C@@H](C)NC2=O)cc1 [Compound 578]	< 100 nM
CCOC(=O)N[C@@H](Cc1ccccc1Cl)C(=O)Nc1ccc(C[C@H]2NC(=O)CC3(CCCC3)CC(=O)NCCOCCOCCNC2=O)cc1 [Compound 579]	< 100 nM
CC(C)OC(=O)N[C@@H](Cc1ccccc1Cl)C(=O)Nc1ccc(C[C@H]2NC(=O)CC3(CCCC3)CC(=O)NCCOCCOCCNC2=O)cc1 [Compound 580]	< 100 nM
CN1CCOCCOCCNC(=O)[C@@H](Cc2ccc(NC(=O)[C@H](Cc3ccccc3Cl)NC(=O)[C@H](O)c3ccccc3)cc2)NC(=O)CC2(CCCC2)CC1=O [Compound 581]	< 100 nM
C[C@H]1NC(=O)[C@@H](Cc2ccc(NC(=O)[C@H](Cc3ccccc3Cl)NC(=O)[C@H](O)c3ccccc3)cc2)NC(=O)CC2(CCCC2)CC(=O)N(C)CCOCCN(C)C1=O [Compound 583]	< 100 nM
CN1CCOCCOCCNC(=O)[C@@H](Cc2ccc(NC(=O)[C@H](Cc3ccccc3Cl)NC(=O)C(=O)c3ccccc3)cc2)NC(=O)CC2(CCCC2)CC1=O [Compound 585]	< 100 nM
C[C@H]1NC(=O)[C@@H](Cc2ccc(NC(=O)[C@H](Cc3ccccc3Cl)NC(=O)Oc3ccccc3)cc2)NC(=O)CC2(CCCC2)CC(=O)NCCCCCNC1=O [Compound 586]	< 100 nM
C[C@H]1NC(=O)[C@@H](Cc2ccc(NC(=O)[C@H](Cc3ccccc3Cl)NC(=O)OCc3ccccc3)cc2)NC(=O)CC2(CCCC2)CC(=O)N(C)CCN(C)CCN(C)C1=O [Compound 587]	< 100 nM
COC(=O)N[C@@H](Cc1ccccc1Cl)C(=O)Nc1ccc(C[C@H]2NC(=O)CC3(CCCC3)CC(=O)N(C)CCN(C)CCN(C)C(=O)[C@@H](C)NC2=O)cc1 [Compound 588]	< 100 nM
CN1CCOCCOCCN(C)C(=O)[C@@H](Cc2ccc(NC(=O)[C@H](Cc3ccccc3Cl)NC(=O)Cc3ccccc3)cc2)NC(=O)CC2(CCCC2)CC1=O [Compound 589]	< 100 nM

SMILES	IC50
CN1CCOCCOCCN(C)C(=O)[C@@H](Cc2ccc(NC(=O)[C@H](Cc3ccccc3Cl)NC(=O)Cc3ccc(F)cc3)cc2)NC(=O)CC2(CCCC2)CC1=O [Compound 590]	< 100 nM
CN1CCOCCOCCN(C)C(=O)[C@@H](Cc2ccc(NC(=O)[C@H](Cc3ccccc3Cl)NC(=O)C(F)(F)c3ccccc3)cc2)NC(=O)CC2(CCCC2)CC1=O [Compound 591]	< 100 nM
C[C@H]1NC(=O)[C@@H](Cc2ccc(NC(=O)[C@H](Cc3ccccc3Cl)NC(=O)Cc3ccc(F)cc3)cc2)NC(=O)[C@H]2CC[C@H](CC2)C(=O)NCCCCCNC1=O [Compound 592]	100 to 1000 nM
C[C@H]1NC(=O)[C@@H](Cc2ccc(NC(=O)[C@H](Cc3ccccc3Cl)NC(=O)C(=O)c3ccccc3)cc2)NC(=O)CC2(CCCC2)CC(=O)N(C)CCOCCN(C)C1=O [Compound 594]	< 100 nM
O=C1CC2(CCCC2)CC(=O)N[C@H](Cc2ccc(NC(=O)[C@@H](NC(=O)C(F)(F)c3ccccc3)C3CCCCC3)cc2)C(=O)NCCOCCOCCN1 [Compound 595]	< 100 nM
CN(C)c1ccc(CC(=O)N[C@H](C(=O)Nc2ccc(C[C@H]3NC(=O)CC4(CCCC4)CC(=O)NCCOCCOCCNC3=O)cc2)C2CCCCC2)cc1 [Compound 596]	< 100 nM
O=C1CC2(CCCC2)CC(=O)N[C@H](Cc2ccc(NC(=O)[C@H](Cc3ccccc3Cl)NC(=O)C(F)(F)c3ccccc3)cc2)C(=O)NCCCCCCCCN1 [Compound 597]	< 100 nM
CN(C)c1ccc(CC(=O)N[C@H](C(=O)Nc2ccc(C[C@H]3NC(=O)CC4(CCCC4)CC(=O)NCCCCCCCCNC3=O)cc2)C2CCCCC2)cc1 [Compound 599]	< 100 nM
C[C@H]1NC(=O)[C@@H](Cc2ccc(NC(=O)[C@@H](NC(=O)C(F)(F)c3ccccc3)C3CCCCC3)cc2)NC(=O)CC2(CCCC2)CC(=O)N(C)CCOCCN(C)C1=O [Compound 602]	< 100 nM
C[C@H]1NC(=O)[C@@H](Cc2ccc(NC(=O)[C@@H](NC(=O)Cc3ccc(N(C)C)cc3)C3CCCCC3)cc2)NC(=O)CC2(CCCC2)CC(=O)N(C)CCOCCN(C)C1=O [Compound 603]	< 100 nM
C[C@H]1NC(=O)[C@@H](Cc2ccc(NC(=O)[C@@H](NC(=O)C(F)(F)c3ccccc3)C3CCCCC3)cc2)NC(=O)CC2(CCCC2)CC(=O)N(C)CCN(C)CCN(C)C1=O [Compound 604]	< 100 nM
C[C@H]1NC(=O)[C@@H](Cc2ccc(NC(=O)[C@@H](NC(=O)Cc3ccc(N(C)C)cc3)C3CCCCC3)cc2)NC(=O)CC2(CCCC2)CC(=O)N(C)CCN(C)CCN(C)C1=O [Compound 605]	< 100 nM
C[C@H]1NC(=O)[C@@H](CCCCNC(=O)[C@H](Cc2ccccc2Cl)NC(=O)C(F)(F)c2ccccc2)NC(=O)CC2(CCCC2)CC(=O)NCCCCCNC1=O [Compound 606]	> 10000 nM
C[C@H]1NC(=O)[C@@H](CCCNC(=O)[C@H](Cc2ccccc2Cl)NC(=O)Cc2ccc(F)cc2)NC(=O)CC2(CCCC2)CC(=O)NCCCCCNC1=O [Compound 607]	> 10000 nM
C[C@H]1NC(=O)[C@@H](CCCNC(=O)[C@H](Cc2ccccc2Cl)NC(=O)C(F)(F)c2ccccc2)NC(=O)CC2(CCCC2)CC(=O)NCCCCCNC1=O [Compound 608]	> 10000 nM
C[C@H]1NC(=O)[C@@H](CCNC(=O)[C@H](Cc2ccccc2Cl)NC(=O)Cc2ccc(F)cc2)NC(=O)CC2(CCCC2)CC(=O)NCCCCCNC1=O [Compound 609]	> 10000 nM
C[C@H]1NC(=O)[C@@H](CCNC(=O)[C@H](Cc2ccccc2Cl)NC(=O)C(F)(F)c2ccccc2)NC(=O)CC2(CCCC2)CC(=O)NCCCCCNC1=O [Compound 610]	> 10000 nM
CN1CCOCCOCCNC(=O)[C@@H](Cc2ccc(NC(=O)[C@@H](NC(=O)C(F)(F)c3ccccc3)C3CCCCC3)cc2)NC(=O)CC2(CCCC2)CC1=O [Compound 611]	< 100 nM
